Data reported in patent publication US8846736B2, “Pyrrole inhibitors of S-nitrosoglutathione reductase as therapeutic agents” (N30 Pharmaceuticals, Inc., priority 2008, dated 2014).

Biological target: T1, GSNOR (GSNO Reductase) (Homo sapiens, UniProt P11766)
T1 construct: made in house; host or cells: E. coli (arabinose-induced)
Experiment: GSNOR assay (in vitro inhibition of GSNOR activity, change in 340 nm absorbance)
Type: biochemical
Settings: GSNOR inhibitor activity by the assay of Example 2; 0.240 mM GSNO, 0.300 mM NADH, pH 7.4, 25° C.; values given as 'about' bounds
Description: Various compounds were tested in vitro for their ability to inhibit GSNOR activity. Representative compounds and their corresponding GSNOR activity are described in a paragraph before Table 1 above. GSNOR expression and purification is described in Biochemistry 2000, 39, 10720-10729.
Pre-cultures were grown from stabs of a GSNOR glycerol stock in 2XYT media containing 100 ug/ml ampicillin after an overnight incubation at 37° C. Cells were then added to fresh 2XYT (4 L) containing ampicillin and grown to an OD (A600) of 0.6-0.9 at 37° C. before induction. GSNOR expression was induced with 0.1% arabinose in an overnight incubation at 20° C.
E. coli cell paste was lysed by nitrogen cavitation and the clarified lysate purified by Ni affinity chromatography on an AKTA FPLC (Amersham Pharmacia). The column was eluted in 20 mM Tris pH 8.0/250 mM NaCl with a 0-500 mM imidazole gradient. […] GSNOR was recovered in the flowthrough fraction and for crystallography is further purified by Q-Sepharose and Heparin flowthrough chromatography in 20 mM Tris pH 8.0, 1 mM DTT, 10 uM ZnSO4.
GSNO and Enzyme/NADH Solutions are made up fresh each day. The Solutions are filtered and allowed to warm to room temperature. GSNO Solution: 100 mM NaPO4 (pH 7.4), 0.480 mM GSNO. 396 μL of GSNO Solution is added to a cuvette followed by 8 μL of test compound in DMSO (or DMSO only for full reaction control) and mixed with the pipette tip. Compounds to be tested are made up at a stock concentration of 10 mM in 100% DMSO. 2 fold serial dilutions are done in 100% DMSO. 8 μL of each dilution are added to an assay so that the final concentration of DMSO in the assay is 1%. The concentrations of compounds tested range from 100 to 0.003 μM. Enzyme/NADH Solution: 100 mM NaPO4 (pH 7.4), 0.600 mM NADH, 1.0 μg/mL GSNO Reductase. 396 μL of the Enzyme/NADH Solution is added to the cuvette to start the reaction. The cuvette is placed in the Cary 3E UV/Visible Spectrophotometer and the change in 340 nm absorbance/min at 25° C. is recorded for 3 minutes. The assays are done in triplicate for each compound concentration. IC50's for each compound are calculated using the standard curve analysis in the Enzyme Kinetics Module of SigmaPlot.
Final assay conditions: 100 mM NaPO4, pH 7.4, 0.240 mM GSNO, 0.300 mM NADH, 0.5 μg/mL GSNO Reductase and 1% DMSO. Final volume: 800 μL/cuvette.

T1 sequence (P11766 whole entry): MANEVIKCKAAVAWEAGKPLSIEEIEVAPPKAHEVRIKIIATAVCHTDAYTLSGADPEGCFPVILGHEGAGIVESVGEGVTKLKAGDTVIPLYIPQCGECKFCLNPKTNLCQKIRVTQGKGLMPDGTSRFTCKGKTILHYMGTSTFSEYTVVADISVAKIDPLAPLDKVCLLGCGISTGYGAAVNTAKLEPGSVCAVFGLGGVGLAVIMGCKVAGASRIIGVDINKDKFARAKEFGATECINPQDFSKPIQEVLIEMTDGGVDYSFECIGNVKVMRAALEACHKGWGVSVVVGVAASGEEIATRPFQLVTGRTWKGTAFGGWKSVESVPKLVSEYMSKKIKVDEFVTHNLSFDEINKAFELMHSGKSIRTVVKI

Row | IC50 | Compound
1 | < 1 µM | COc1cc(Cl)ccc1-c1ccc(CCc2nnn[nH]2)n1-c1ccc(C(N)=O)cc1C [Compound 16, 4-(2-(2-(1H-tetrazol-5-yl)ethyl)-5-(4-chloro-2-methoxy-phenyl)-1H-pyrrol-1-yl)-3-methylbenzamide]
2 | < 5 µM | Oc1ccc(-n2c(Cc3nnn[nH]3)ccc2-c2ccc(Br)cc2)cc1 [Compound 6, 4-(2-((1H-tetrazol-5-yl)methyl)-5-(4-bromophenyl)-1H-pyrrol-1-yl)phenol]
3 | < 1 µM | Cc1nccn1-c1ccc(-c2ccc(Cc3nnn[nH]3)n2-c2ccc(O)cc2)s1 [Compound 20, 4-(2-((1H-tetrazol-5-yl)methyl)-5-(5-(2-methyl-1H-imidazol-1-yl)thiophen-2-yl)-1H-pyrrol-1-yl)phenol]
4 | < 1 µM | COc1cc(Br)ccc1-c1ccc(CCc2nnn[nH]2)n1-c1ccc(C(N)=O)cc1C [Compound 17, 4-(2-(2-(1H-tetrazol-5-yl)ethyl)-5-(4-bromo-2-methoxy-phenyl)-1H-pyrrol-1-yl)-3-methylbenzamide]
5 | < 1 µM | Oc1ccc(-n2c(CCc3nnn[nH]3)ccc2-c2ccc(-n3ccnc3)cc2)cc1 [Compound 8, 4-(2-(4-(1H-imidazol-1-yl)phenyl)-5-(2-(1H-tetrazol-5-yl)ethyl)-1H-pyrrol-1-yl)phenol]
6 | < 1 µM | Oc1ccc(-n2c(CCc3nnn[nH]3)ccc2-c2ccc(Br)cc2)cc1 [Compound 5, 4-(2-(2-(1H-tetrazol-5-yl)ethyl)-5-(4-bromophenyl)-1H-pyrrol-1-yl)phenol]
7 | < 1 µM | COc1cc(Cl)ccc1-c1ccc(CCc2nnn[nH]2)n1-c1ccc(O)cc1 [Compound 14, 4-(2-(2-(1H-tetrazol-5-yl)ethyl)-5-(4-chloro-2-methoxyphenyl)-1H-pyrrol-1-yl)phenol]
8 | < 5 µM | COc1ccc(-c2ccc(CCc3nnn[nH]3)n2-c2ccc(C(N)=O)cc2C)cc1 [Compound 4, 4-(2-(2-(1H-tetrazol-5-yl)ethyl)-5-(4-methoxyphenyl)-1H-pyrrol-1-yl)-3-methylbenzamide]
9 | < 1 µM | Cc1cc(C(N)=O)ccc1-n1c(Cc2nnn[nH]2)ccc1-c1ccc(Br)cc1 [Compound 9, 4-(2-((1H-tetrazol-5-yl)methyl)-5-(4-bromophenyl)-1H-pyrrol-1-yl)-3-methylbenzamide]
10 | < 1 µM | COc1cc(Br)ccc1-c1ccc(CCc2nnn[nH]2)n1-c1ccc(O)cc1 [Compound 15, 4-(2-(2-(1H-tetrazol-5-yl)ethyl)-5-(4-bromo-2-methoxyphenyl)-1H-pyrrol-1-yl)phenol]
11 | < 1 µM | Cc1cc(C(N)=O)ccc1-n1c(Cc2nnn[nH]2)ccc1-c1ccc(-n2ccnc2C)cc1 [Compound 21, 4-(2-((1H-tetrazol-5-yl)methyl)-5-(4-(2-methyl-1H-imidazol-1-yl)phenyl)-1H-pyrrol-1-yl)-3-methylbenzamide]
12 | < 1 µM | Cc1cc(NS(C)(=O)=O)ccc1-n1c(Cc2nn[nH]n2)ccc1-c1ccc(-n2ccnc2C)s1 [Compound 22, N-(4-(2-((1H-tetrazol-5-yl)methyl)-5-(5-(2-methyl-1H-imidazol-1-yl)-thiophen-2-yl)-1H-pyrrol-1-yl)-3-methylphenyl)-methanesulfonamide]
13 | < 1 µM | NC(=O)c1ccc(-n2c(CCc3nnn[nH]3)ccc2-c2ccccc2)cc1 [Compound 1, 4-(2-(2-(1H-tetrazol-5-yl)ethyl)-5-phenyl-1H-pyrrol-1-yl)benzamide]
14 | < 1 µM | Cc1cc(C(N)=O)ccc1-n1c(CCc2nnn[nH]2)ccc1-c1ccc(Br)cc1 [Compound 11, 4-(2-(2-(1H-tetrazol-5-yl)ethyl)-5-(4-bromophenyl)-1H-pyrrol-1-yl)-3-methylbenzamide]
15 | < 1 µM | Cc1cc(C(N)=O)ccc1-n1c(Cc2nnn[nH]2)ccc1-c1ccc(-n2ccnc2C)s1 [Compound 19, 4-(2-((1H-tetrazol-5-yl)methyl)-5-(5-(2-methyl-1H-imidazol-1-yl)thiophen-2-yl)-1H-pyrrol-1-yl)-3-methylbenzamide]
16 | < 5 µM | COc1ccc(-c2ccc(CCc3nnn[nH]3)n2-c2ccc(O)cc2)cc1 [Compound 13, 4-(2-(2-(1H-tetrazol-5-yl)ethyl)-5-(4-methoxyphenyl)-1H-pyrrol-1-yl)phenol]
17 | < 5 µM | COc1ccc(-c2ccc(Cc3nnn[nH]3)n2-c2ccc(C(N)=O)cc2C)cc1 [Compound 10, 4-(2-((1H-tetrazol-5-yl)methyl)-5-(4-methoxyphenyl)-1H-pyrrol-1-yl)-3-methylbenzamide]
18 | < 5 µM | COc1ccc(-c2ccn(CCc3nnn[nH]3)c2-c2ccc(C(N)=O)cc2C)cc1 [Compound 23, 4-(1-(2-(1H-tetrazol-5-yl)ethyl)-3-(4-methoxy-phenyl)-1H-pyrrol-2-yl)-3-methylbenzamide]
19 | < 1 µM | Oc1ccc(-n2c(Cc3nnn[nH]3)ccc2-c2ccc(-n3ccnc3)cc2)cc1 [Compound 12, 4-(2-(4-(1H-imidazol-1-yl)phenyl)-5-((1H-tetrazol-5-yl)methyl)-1H-pyrrol-1-yl)phenol]
20 | < 1 µM | Cc1nccn1-c1ccc(-c2ccc(Cc3nnn[nH]3)n2-c2ccc(O)cc2)cc1 [Compound 18, 4-(2-((1H-tetrazol-5-yl)methyl)-5-(4-(2-methyl-1H-imidazol-1-yl)phenyl)-1H-pyrrol-1-yl)phenol]
